From ChEMBL document CHEMBL4184337, “Discovery of Orally Bioavailable, Quinoline-Based Aldehyde Dehydrogenase 1A1 (ALDH1A1) Inhibitors with Potent Cellular Activity” (J Med Chem, 2018)

Experiments:
[1] = Solubility of compound; format: physicochemical
[2] = test system: Mus musculus; assay: Cmax in CD1 mouse at 2 mg/kg, iv measured at 5 mins by LC-MS/MS method; format: ADME, organism-based; parameters: dose 2 mg/kg, route intravenous; details: in vivo
[3] = test system: Mus musculus; assay: Cmax in CD1 mouse at 10 mg/kg, po measured at 5 mins by LC-MS/MS method; format: ADME, organism-based; parameters: dose 10 mg/kg, route oral; details: in vivo
[4] = test system: Rattus norvegicus; assay: Cmax in Sprague-Dawley rat at 2 mg/kg, iv measured at 5 mins by LC-MS/MS method; format: ADME, organism-based; parameters: dose 2 mg/kg, route intravenous; details: in vivo
[5] = test system: Rattus norvegicus; assay: Cmax in Sprague-Dawley rat at 10 mg/kg, po measured at 5 mins by LC-MS/MS method; format: ADME, organism-based; parameters: dose 10 mg/kg, route oral; details: in vivo
[6] = AUC (0 to infinity) in Sprague-Dawley rat at 2 mg/kg, iv by LC-MS/MS method; format: ADME, organism-based; parameters: dose 2 mg/kg, time infinity, route intravenous; details: in vivo
[7] = AUC (0 to infinity) in Sprague-Dawley rat at 10 mg/kg, po by LC-MS/MS method; format: ADME, organism-based; parameters: dose 10 mg/kg, route oral, time infinity; details: in vivo
[8] = Volume of distribution at steady state in Sprague-Dawley rat at 2 mg/kg, iv by LC-MS/MS method; format: ADME, organism-based; details: in vivo, read-out: Vdss
[9] = test system: Mus musculus; assay: Oral bioavailability in CD1 mouse at 10 mg/kg by LC-MS/MS method; format: ADME, organism-based; details: in vivo
[10] = test system: Rattus norvegicus; assay: Oral bioavailability in Sprague-Dawley rat at 10 mg/kg by LC-MS/MS method; format: ADME, organism-based; details: in vivo
[11] = Permeability of the compound by PAMPA; format: ADME
[12] = Apparent permeability across apical to basolateral side in human Caco2 cells; format: ADME, cell-based; details: caco-2
[13] = Apparent permeability across basolateral to apical side in human Caco2 cells; format: ADME, cell-based; details: caco-2

SMILES	solubility [1] [µg/mL]	Cmax [2] [ng/mL]	Cmax [3] [ng/mL]	Cmax [4] [ng/mL]	Cmax [5] [ng/mL]	AUC(0-inf) [6] [ng·h/mL]	AUC(0-inf) [7] [ng·h/mL]	Vd [8] [L/kg]	F [9] [%]	F [10] [%]	permeability [11] [×10⁻⁶ cm/s]	Papp [12] [×10⁻⁶ cm/s]	Papp [13] [×10⁻⁶ cm/s]
COc1ccc(S(=O)(=O)c2cnc3ccc(OC)cc3c2N2CCC3(CC2)OCCO3)cc1	< 1	–	–	–	–	–	–	–	–	–	–	–	–
CS(=O)(=O)N1CCN(C(=O)c2cnc3ccc(F)cc3c2-c2ccc(C3(C#N)CC3)cc2)CC1	–	1997	1530	2587	1980	3160	7540	0.7	76	48	388	5.76	22.4
CS(=O)(=O)N1CCN(C(=O)c2cnc3ccc(F)cc3c2N2CCC(C#N)(c3ccccc3)CC2)CC1	–	2350	1234	–	–	–	–	–	44	–	725	11.4	17.2
